From patent US20120238576A1, “Triazine Derivatives and their Therapeutical Applications” (CALIFORNIA CAPITAL EQUITY, LLC, priority 2009, published 2012)

target: c-SRC (h) (Homo sapiens, UniProt P12931); experiment: Src Kinase Assay (33P-ATP filter-binding, Cdc2 peptide substrate); format: biochemical; conditions: compound at 10 μM; c-SRC (h) 5-10 mU, 40 minutes at room temperature
Procedure: This example illustrated Src Kinase Assays. Briefly, in a final reaction volume of 25 μL, c-SRC (h) (5-10 mU) is incubated with 8 mM MOPS pH 7.0, 0.2 mM EDTA, 250 μM KVEKIGEGTYGVVYK (Cdc2 peptide), 10 mM MgAcetate and [g-33P-ATP] (specific activity approx. 500 cpm/pmol, concentration as required). The reaction is initiated by the addition of the MgATP mix. After incubation for 40 minutes at room temperature, the reaction is stopped by the addition of 5 μL of a 3% phosphoric acid solution. 10 μL of the reaction is then spotted onto a P30 filtermat and washed three times for 5 minutes in 75 mM phosphoric acid and once in methanol prior to drying and scintillation counting.

Sequence of c-SRC (h) (P12931 whole entry): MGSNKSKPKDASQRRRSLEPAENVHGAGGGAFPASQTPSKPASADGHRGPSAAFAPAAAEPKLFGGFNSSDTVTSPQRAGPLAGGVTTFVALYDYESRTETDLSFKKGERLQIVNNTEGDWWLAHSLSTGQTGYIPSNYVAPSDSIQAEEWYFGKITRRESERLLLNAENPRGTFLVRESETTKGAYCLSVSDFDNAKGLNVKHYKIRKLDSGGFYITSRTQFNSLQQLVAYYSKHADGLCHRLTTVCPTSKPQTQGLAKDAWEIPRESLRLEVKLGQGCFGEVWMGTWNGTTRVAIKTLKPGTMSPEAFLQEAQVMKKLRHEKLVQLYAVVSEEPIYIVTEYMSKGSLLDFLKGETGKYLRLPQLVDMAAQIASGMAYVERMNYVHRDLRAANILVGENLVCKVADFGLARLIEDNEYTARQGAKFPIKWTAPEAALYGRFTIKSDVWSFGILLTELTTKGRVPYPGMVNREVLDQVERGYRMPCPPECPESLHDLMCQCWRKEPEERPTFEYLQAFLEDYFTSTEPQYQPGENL

inhibition at 10 µM [%]	SMILES
< 50	CCc1nc(Nc2nnc(C(=O)Nc3c(C)cccc3Cl)o2)nc(N2CCN(CCO)CC2)n1 [Example 52]
< 50	Cc1cccc(Cl)c1NC(=O)Cc1cc(Nc2ncnc(OCCCN(C)C)n2)n[nH]1 [Example 107]
> 90	Cc1nc(Nc2ncc(C(=O)Nc3c(C)cccc3Cl)s2)nc(N2CCN(CCO)CC2)n1 [Example 5]
> 90	CCc1nc(NCCN(C)C)nc(Nc2ncc(C(=O)Nc3c(C)cccc3C)s2)n1 [Example 71]
< 50	COCC(C)Nc1ncnc(Nc2cc(CC(=O)Nc3cccc(F)c3)[nH]n2)n1 (centres unmarked) [Example 111]
> 90	Cc1nc(Nc2ncc(C(=O)Nc3c(C)cccc3Cl)s2)nc(N2CCNC(=O)C2)n1 [Example 19]
< 50	O=C(Cc1cc(Nc2ncnc(Nc3ccccc3)n2)n[nH]1)Nc1cccc(F)c1 [Example 113]
< 50	CN1CCN(c2ncnc(Nc3cc(CC(=O)NCc4ccc(F)cc4)[nH]n3)n2)CC1 [Example 108]
> 90	Cc1nc(Nc2ncc(C(=O)Nc3c(C)cccc3Cl)s2)nc(N2CCN(Cc3ccncc3)CC2)n1 [Example 10]
> 90	Cc1nc(NCCCn2ccnc2)nc(Nc2ncc(C(=O)Nc3c(C)cccc3Cl)s2)n1 [Example 20]
> 90	Cc1nc(Nc2ncc(C(=O)Nc3c(C)cccc3Cl)s2)nc(N2CCC(CO)CC2)n1 [Example 11]
< 50	CN(C)CCN(C)c1ncnc(Nc2cc(CC(=O)Nc3cccc(F)c3)[nH]n2)n1 [Example 110]
< 50	CCc1nc(NCCN(C)C)nc(Nc2ncc(C(=O)NC3CC3)s2)n1 [Example 63]
> 90	Cc1cccc(Cl)c1NC(=O)c1cnc(Nc2nc(CC(C)C)nc(N3CCN(CCO)CC3)n2)s1 [Example 34]
> 90	Cc1nc(Nc2ncc(C(=O)Nc3c(C)cccc3Cl)s2)nc(N2CCN(c3cccc(C(F)(F)F)c3)CC2)n1 [Example 18]
> 90	CCc1nc(Nc2ncc(C(=O)Nc3c(C)cccc3Cl)o2)nc(N2CCN(CCO)CC2)n1 [Example 40]
> 90	CCc1nc(NCCN(C)C)nc(Nc2ncc(C(=O)Nc3c(C)cccc3Cl)s2)n1 [Example 26]
> 90	CCc1nc(Nc2ncc(C(=O)Nc3c(C)cccc3Cl)s2)nc(N2CCN(CCO)CC2)n1 [Example 23]
> 90	CCc1nc(NCCCN2CCOCC2)nc(Nc2ncc(C(=O)Nc3c(C)cccc3Cl)s2)n1 [Example 28]
> 90	CCc1nc(Nc2ncc(C(=O)Nc3c(C)cccc3Cl)s2)nc(N2CCN(c3ccncc3)CC2)n1 [Example 24]
> 90	CCc1nc(Nc2ncc(C(=O)Nc3c(C)cccc3Cl)s2)nc(N2CCOCC2)n1 [Example 25]

inhibition at 10 µM [%]	SMILES
> 90	CCc1nc(NCCN(CC)CC)nc(Nc2ncc(C(=O)Nc3c(C)cccc3Cl)s2)n1 [Example 94]
> 90	Cc1nc(Nc2ncc(C(=O)Nc3c(C)cccc3Cl)s2)nc(N2CCN(CCC#N)CC2)n1 [Example 14]
< 50	CN(C)CCCOc1ncnc(Nc2cc(CC(=O)Nc3cccc(F)c3)[nH]n2)n1 [Example 105]
< 50	CN1CCN(c2ncnc(Nc3cc(CC(=O)Nc4cccc(F)c4)[nH]n3)n2)CC1 [Example 104]
< 50	O=C(Cc1cnc(Nc2ncnc(N3CCCCC3)n2)s1)Nc1cccc(F)c1 [Example 89]
> 90	Cc1cccc(Cl)c1NC(=O)c1cnc(Nc2nc(-c3ccccc3)nc(N3CCN(CCO)CC3)n2)s1 [Example 31]
> 90	CCc1nc(Nc2ncc(C(=O)Nc3c(C)cccc3Cl)n2C)nc(N2CCN(C)CC2)n1 [Example 59]
> 90	CCc1nc(NCCO)nc(Nc2ncc(C(=O)Nc3c(C)cccc3Cl)s2)n1 [Example 27]
< 50	CCc1nc(NCCN(C)C)nc(Nc2ncc(C(=O)NC(C)C)s2)n1 [Example 67]
> 90	Cc1nc(Nc2ncc(C(=O)Nc3c(C)cccc3Cl)s2)nc(N2CCN(c3ccccc3)CC2)n1 [Example 17]
> 90	Cc1nc(Nc2ncc(C(=O)Nc3c(C)cccc3Cl)o2)nc(N2CCNCC2)n1 [Example 38]
< 50	CCc1nc(Nc2ncc(CC(=O)Nc3c(C)cccc3Cl)s2)nc(N2CCN(CCO)CC2)n1 [Example 93]
> 90	CCc1nc(NCCN(C)C)nc(Nc2ncc(C(=O)Nc3c(C)cc(C)cc3C)s2)n1 [Example 75]
< 50	CN(C)CCCOc1ncnc(Nc2cc(CC(=O)NCc3ccc(F)cc3)[nH]n2)n1 [Example 109]
< 50	Cc1cccc(Cl)c1NC(=O)Cc1cc(Nc2ncnc(N3CCN(C)CC3)n2)n[nH]1 [Example 106]
> 90	Cc1nc(Nc2ncc(C(=O)Nc3c(C)cccc3Cl)s2)nc(N2CCN(C)CC2)n1 [Example 7]
50 to 90	CCc1nc(NCCN(C)C)nc(Nc2ncc(C(=O)Nc3ccccc3)s2)n1 [Example 79]
< 50	Cc1cccc(Cl)c1NC(=O)Cc1cnc(Nc2ncnc(N3CCN(C)CC3)n2)s1 [Example 92]
> 90	Cc1nc(Nc2ncc(C(=O)Nc3c(C)cccc3Cl)s2)nc(N2CCNCC2)n1 [Example 13]
< 50	CN1CCN(c2ncnc(Nc3ncc(CC(=O)Nc4cccc(F)c4)s3)n2)CC1 [Example 88]
